From the supplement of paper PMC6965134
± gives the standard deviation of the averaged measurements.

Experiment: TIMS collisional cross section (CCS, N2) of the lipid ion; higher = larger ion cross section
Details: ionization mode: positive, one isomer drawn
Protocol: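 Lipid extracts of human plasma (NIST SRM 1950), mouse liver and HeLa cells were separated by nanoflow C18 LC (30 min gradient, 60 °C) and analysed by TIMS-PASEF on a timsTOF Pro in positive ion mode. Ion mobility was calibrated with the Agilent tuning mix and converted to collisional cross sections (Mason–Schamp) in N2 drift gas. Lipids were identified by MS/MS (SimLipid) and manual curation. SMILES are LIPID MAPS representative structures for the annotated lipid.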

SMILES: CCCCCCCCCCCCC/C=C/C=C/C(=O)OC[C@@H](O)COP(=O)([O-])OCC[N+](C)(C)C (ion (formula + adduct): [C26H50NO7P+H] 1+)
- TIMS collisional cross section (sample type: HeLa): 228.2 Å²
- TIMS collisional cross section (sample type: plasma): 228.1 ± 0.42 Å²

SMILES: CC(C)CCC[C@@H](C)[C@H]1CC[C@H]2C3=CC[C@H]4[C@](C)(C=O)[C@@H](O)CC[C@]4(C)[C@H]3CC[C@]12C (ion (formula + adduct): [C29H48O2+H] 1+)
- TIMS collisional cross section (sample type: plasma): 219.5 Å²

SMILES: CC(C)CCC[C@@H](C)[C@H]1CC[C@H]2[C@@H]3C(=O)C=C4C=CCC[C@]4(C)[C@H]3CC[C@]12C [3,5-cholestadien-7-one] (ion (formula + adduct): [C27H42O+H] 1+)
- TIMS collisional cross section (sample type: HeLa): 203.63 ± 0.75 Å²
- TIMS collisional cross section (sample type: plasma): 203.1 Å²

SMILES: [C@]12(CC=C3C[C@@H](O)CC[C@]3(C)[C@@]1([H])CC[C@]1(C)[C@@]([H])([C@@](C)([H])CC[C@@H]3O[C@@]3(C)C)CC[C@@]21[H])[H] [24,25-epoxy-cholesterol] (ion (formula + adduct): [C27H44O2+H] 1+)
- TIMS collisional cross section (sample type: HeLa): 210.4 Å²
- TIMS collisional cross section (sample type: Liver): 209.6 Å²
- TIMS collisional cross section (sample type: plasma): 210.5 Å²

SMILES: CC(C)C(=O)C[C@](C)(O)[C@H]1CC[C@H]2[C@@H]3C[C@H](O)[C@H]4C[C@@H](O)CC[C@]4(C)C3=CC[C@@]21C [24-northornasterol A] (ion (formula + adduct): [C26H42O4+H] 1+)
- TIMS collisional cross section (sample type: plasma): 207.8 Å²

SMILES: C12CC[C@@]3([H])C(C)(C)[C@@H](O)CC[C@]3(C)C=1CC[C@]1(C)[C@@]([H])([C@@](C)([H])CC/C=C(\C)/C)CC[C@@]21C=O [32-oxolanosterol] (ion (formula + adduct): [C30H48O2+H] 1+)
- TIMS collisional cross section (sample type: HeLa): 211.6 Å²

SMILES: CCCCCCCCCCCCC/C=C/[C@@H](O)[C@H](CO)NC(=O)CCCCCCCCCCCCCCCCCCCCC [Cer d18:1_22:0@] (ion (formula + adduct): [C40H79NO3+H] 1+)
- TIMS collisional cross section (sample type: HeLa): 274.3 Å²
- TIMS collisional cross section (sample type: Liver): 274.9 Å²

SMILES: CCCCCCCCCCCCC/C=C/[C@@H](O)[C@H](CO)NC(=O)CCCCCCCCCCCCCCCCCCCCCC [Cer d18:1_23:0@] (ion (formula + adduct): [C41H81NO3+H] 1+)
- TIMS collisional cross section (sample type: HeLa): 276.9 Å²
- TIMS collisional cross section (sample type: Liver): 277.5 Å²

SMILES: CCCCCCCCCCCCC/C=C/[C@@H](O)[C@H](CO)NC(=O)CCCCCCCCCCCCCCCCCCCCCCC [Cer d18:1_24:0@] (ion (formula + adduct): [C42H83NO3+H] 1+)
- TIMS collisional cross section (sample type: Liver): 281.2 Å²
- TIMS collisional cross section (sample type: plasma): 281.1 Å²

SMILES: CCCCCCCC/C=C\CCCCCCCCCCCCCC(=O)N[C@@H](CO)[C@H](O)/C=C/CCCCCCCCCCCCC [Cer d18:1_24:1@] (ion (formula + adduct): [C42H81NO3+H] 1+)
- TIMS collisional cross section (sample type: HeLa): 278.2 Å²
- TIMS collisional cross section (sample type: Liver): 283 Å²
- TIMS collisional cross section (sample type: plasma): 280.9 ± 3.8 Å²

SMILES: CCCCCCCCCCCCC/C=C/[C@@H](O)[C@H](CO)NC(=O)CCCCCCCCCCCCCCCCCCCCCCCC [Cer d18:1_25:0@] (ion (formula + adduct): [C43H85NO3+H] 1+)
- TIMS collisional cross section (sample type: Liver): 284.1 Å²

SMILES: CCCCCCCC/C=C\CCCCCCCCCCCCCCCC(=O)N[C@@H](CO)[C@H](O)/C=C/CCCCCCCCCCCCC [Cer d18:1_26:1@] (ion (formula + adduct): [C44H85NO3+H] 1+)
- TIMS collisional cross section (sample type: HeLa): 284.9 Å²
- TIMS collisional cross section (sample type: Liver): 289.4 Å²

SMILES: CC(C)CCC[C@@H](C)[C@H]1CC[C@H]2[C@@H]3CC=C4C[C@@H](O)CC[C@]4(C)[C@H]3CC[C@]12C [Cholesterol] (ion (formula + adduct): [C27H46O+H] 1+)
- TIMS collisional cross section (sample type: HeLa): 207.1 Å²

SMILES: CC(C)(O)CCC(=O)[C@](C)(O)[C@H]1[C@H](O)C[C@@]2(C)[C@@H]3CC=C4[C@@H](C[C@@H](O)[C@@H](O)C4(C)C)[C@]3(C)C(=O)C[C@]12C [Cucurbitacin P] (ion (formula + adduct): [C30H48O7+H] 1+)
- TIMS collisional cross section (sample type: Liver): 231.3 Å²

SMILES: CCCCCCCCCCCCCCCC(=O)O[C@@H](CO)COC(=O)CCCCCCCCCCCCC [DG 14:0_16:0_0:0] (ion (formula + adduct): [C33H64O5+NH4] 1+)
- TIMS collisional cross section (sample type: HeLa): 252.4 Å²
- TIMS collisional cross section (sample type: Liver): 252.7 Å²

SMILES: CCCCCC/C=C\CCCCCCCC(=O)O[C@@H](CO)COC(=O)CCCCCCCCCCCCC [DG 14:0_16:1_0:0] (ion (formula + adduct): [C33H62O5+NH4] 1+)
- TIMS collisional cross section (sample type: HeLa): 248.3 Å²

SMILES: CCCCCCCC/C=C\CCCCCCCC(=O)O[C@@H](CO)COC(=O)CCCCCCCCCCCCC [DG 14:0_18:1_0:0] (ion (formula + adduct): [C35H66O5+NH4] 1+)
- TIMS collisional cross section (sample type: plasma): 255.9 Å²

SMILES: CCCCC/C=C\C/C=C\CCCCCCCC(=O)O[C@@H](CO)COC(=O)CCCCCCCCCCCCC [DG 14:0_18:2_0:0] (ion (formula + adduct): [C35H64O5+NH4] 1+)
- TIMS collisional cross section (sample type: Liver): 252 Å²

SMILES: CCCCCCCCCCCCCCCC(=O)OCC(CO)OC(=O)CCCCCCCCCCCCCCC (configuration not stated) [DG 16:0_16:0_0:0] (ion (formula + adduct): [C35H68O5+NH4] 1+)
- TIMS collisional cross section (sample type: HeLa): 259 Å²
- TIMS collisional cross section (sample type: Liver): 258.8 Å²
- TIMS collisional cross section (sample type: plasma): 259 ± 0.42 Å²

SMILES: CCCCCCCCCCCCCCCC(=O)OCC(CO)OC(=O)CCCCCCCCCCCCCCC (configuration not stated) [DG 16:0_16:0_0:0] (ion (formula + adduct): [C35H68O5+Na] 1+)
- TIMS collisional cross section (sample type: plasma): 253.8 Å²

SMILES: CCCCCC/C=C\CCCCCCCC(=O)O[C@@H](CO)COC(=O)CCCCCCCCCCCCCCC [DG 16:0_16:1_0:0] (ion (formula + adduct): [C35H66O5+NH4] 1+)
- TIMS collisional cross section (sample type: HeLa): 254.9 Å²
- TIMS collisional cross section (sample type: Liver): 254.9 Å²
- TIMS collisional cross section (sample type: plasma): 257 Å²

SMILES: CCCCCCCCCCCCCCCCC(=O)O[C@@H](CO)COC(=O)CCCCCCCCCCCCCCC [DG 16:0_17:0_0:0] (ion (formula + adduct): [C36H70O5+NH4] 1+)
- TIMS collisional cross section (sample type: HeLa): 262.1 ± 0.42 Å²

SMILES: CCCCC/C=C\C/C=C\CCCCCCCC(=O)O[C@@H](CO)COC(=O)CCCCCCCCCCCCCCC [DG 16:0_18:2_0:0] (ion (formula + adduct): [C37H68O5+NH4] 1+)
- TIMS collisional cross section (sample type: Liver): 259.8 Å²

SMILES: CC/C=C\C/C=C\C/C=C\CCCCCCCC(=O)O[C@@H](CO)COC(=O)CCCCCCCCCCCCCCC [DG 16:0_18:3_0:0] (ion (formula + adduct): [C37H66O5+NH4] 1+)
- TIMS collisional cross section (sample type: HeLa): 257.3 Å²
- TIMS collisional cross section (sample type: Liver): 257.1 Å²

SMILES: CCCCC/C=C\C/C=C\C/C=C\CCCCCCC(=O)O[C@@H](CO)COC(=O)CCCCCCCCCCCCCCC [DG 16:0_20:3_0:0] (ion (formula + adduct): [C39H70O5+H] 1+)
- TIMS collisional cross section (sample type: Liver): 265.1 Å²

SMILES: CCCCC/C=C\C/C=C\C/C=C\CCCCCCC(=O)O[C@@H](CO)COC(=O)CCCCCCCCCCCCCCC [DG 16:0_20:3_0:0] (ion (formula + adduct): [C39H70O5+NH4] 1+)
- TIMS collisional cross section (sample type: HeLa): 264.8 Å²
- TIMS collisional cross section (sample type: Liver): 264.9 Å²

SMILES: CCCCC/C=C\C/C=C\C/C=C\C/C=C\CCCC(=O)O[C@@H](CO)COC(=O)CCCCCCCCCCCCCCC [DG 16:0_20:4_0:0] (ion (formula + adduct): [C39H68O5+H] 1+)
- TIMS collisional cross section (sample type: Liver): 263.9 Å²

SMILES: CCCCC/C=C\C/C=C\C/C=C\C/C=C\CCCC(=O)O[C@@H](CO)COC(=O)CCCCCCCCCCCCCCC [DG 16:0_20:4_0:0] (ion (formula + adduct): [C39H68O5+NH4] 1+)
- TIMS collisional cross section (sample type: HeLa): 263.4 Å²
- TIMS collisional cross section (sample type: Liver): 263.8 Å²
- TIMS collisional cross section (sample type: plasma): 263.6 Å²

SMILES: CC/C=C\C/C=C\C/C=C\C/C=C\C/C=C\CCCC(=O)O[C@@H](CO)COC(=O)CCCCCCCCCCCCCCC [DG 16:0_20:5_0:0] (ion (formula + adduct): [C39H66O5+NH4] 1+)
- TIMS collisional cross section (sample type: HeLa): 261.5 Å²

SMILES: CCCCCCCCCCCCCCCCCCCCCC(=O)O[C@@H](CO)COC(=O)CCCCCCCCCCCCCCC [DG 16:0_22:0_0:0] (ion (formula + adduct): [C41H80O5+NH4] 1+)
- TIMS collisional cross section (sample type: HeLa): 279.1 Å²

SMILES: CCCCCCCC/C=C\CCCCCCCCCCCC(=O)O[C@@H](CO)COC(=O)CCCCCCCCCCCCCCC [DG 16:0_22:1_0:0] (ion (formula + adduct): [C41H78O5+NH4] 1+)
- TIMS collisional cross section (sample type: HeLa): 276.3 Å²

SMILES: CCCCC/C=C\C/C=C\C/C=C\C/C=C\CCCCCC(=O)O[C@@H](CO)COC(=O)CCCCCCCCCCCCCCC [DG 16:0_22:4_0:0] (ion (formula + adduct): [C41H72O5+NH4] 1+)
- TIMS collisional cross section (sample type: HeLa): 271.2 Å²
- TIMS collisional cross section (sample type: Liver): 270.8 Å²

SMILES: CC/C=C\C/C=C\C/C=C\C/C=C\C/C=C\CCCCCC(=O)O[C@@H](CO)COC(=O)CCCCCCCCCCCCCCC [DG 16:0_22:5_0:0] (ion (formula + adduct): [C41H70O5+NH4] 1+)
- TIMS collisional cross section (sample type: HeLa): 266.6 Å²
- TIMS collisional cross section (sample type: Liver): 270 Å²

SMILES: CC/C=C\C/C=C\C/C=C\C/C=C\C/C=C\C/C=C\CCC(=O)O[C@@H](CO)COC(=O)CCCCCCCCCCCCCCC [DG 16:0_22:6_0:0] (ion (formula + adduct): [C41H68O5+NH4] 1+)
- TIMS collisional cross section (sample type: Liver): 267.7 Å²

SMILES: CCCCCC/C=C\CCCCCCCC(=O)OC[C@H](CO)OC(=O)CCCCCCC/C=C\CCCCCC [DG 16:1_16:1_0:0] (ion (formula + adduct): [C35H64O5+NH4] 1+)
- TIMS collisional cross section (sample type: HeLa): 249 Å²

SMILES: CCCCCC/C=C\CCCCCCCC(=O)OC[C@H](CO)OC(=O)CCCCCCC/C=C\CCCCCCCC [DG 16:1_18:1_0:0] (ion (formula + adduct): [C37H68O5+H] 1+)
- TIMS collisional cross section (sample type: HeLa): 258.1 Å²
